# Reference: patent US20100105647A1 (priority 2007, published 2010)
# Test system: Alternaria brassicicola
# Assay: Test of Preventive Effect on Japanese Radish Alternaria Leaf Spot
# Assay type: in vivo
# Conditions: Japanese radish (cultivar: Wase 40-nichi), foliage application 500 ppm, 1 day high humidity at 24° C. plus 3 days greenhouse
# Procedure: The controlling effect was evaluated by visually observing the area of lesion spots on each of test plants at the time of investigation and comparing the area of lesion spots on a plant treated with the present compound with that on an untreated plant.
# Test of Preventive Effect on Japanese Radish Alternaria Leaf Spot (Alternaria brassicicola)
# Each of plastic pots was filled with sandy loam and sown with Japanese radish (cultivar: Wase 40-nichi), followed by growing in a greenhouse for 5 days. Each of the present compounds 1-19, 21-40 and 41 was formulated into a flowable formulation according to Formulation Example 6. The flowable formulation was diluted to a predetermined concentration (500 ppm) with water, and foliage application of the dilution was carried out so that the dilution adhered sufficiently to the surfaces of leaves of the Japanese radish. After the foliage application, the plant was air-dried and then inoculated by spraying a water suspension of spores of Alternaria brassicicola. After the inoculation, the plant was held under high humidity conditions at 24° C. for 1 day and held in a greenhouse for 3 days, and then the area of lesion spots was investigated.
smiles,measurement,value
C#CCOc1c(F)cc(C(=O)NCC2=CCCCC2)cc1F [compound 18],area of lesion spots on the treated plant relative to that on an untreated plant,≤ 30%
